From article PMC9010685, “Sensor dimer disruption as a new mode of action to block the IRE1-mediated unfolded protein response” (Computational and Structural Biotechnology Journal, 2022)
Read-outs that look alike come from different tables or passages of the source.

Target: T1, IRE1 (IRE1α, Inositol requiring enzyme 1α) (Homo sapiens, UniProt O75460)
T1 construct: gene ERN1; recombinant IRE1 (aa 465–977, His & GST Tag); cytosolic domain
Test: in vitro fluorescence RNase assay, cleavage of XBP1 mini-probe (Cy5)
Type: biochemical

T1 sequence (O75460 465-977): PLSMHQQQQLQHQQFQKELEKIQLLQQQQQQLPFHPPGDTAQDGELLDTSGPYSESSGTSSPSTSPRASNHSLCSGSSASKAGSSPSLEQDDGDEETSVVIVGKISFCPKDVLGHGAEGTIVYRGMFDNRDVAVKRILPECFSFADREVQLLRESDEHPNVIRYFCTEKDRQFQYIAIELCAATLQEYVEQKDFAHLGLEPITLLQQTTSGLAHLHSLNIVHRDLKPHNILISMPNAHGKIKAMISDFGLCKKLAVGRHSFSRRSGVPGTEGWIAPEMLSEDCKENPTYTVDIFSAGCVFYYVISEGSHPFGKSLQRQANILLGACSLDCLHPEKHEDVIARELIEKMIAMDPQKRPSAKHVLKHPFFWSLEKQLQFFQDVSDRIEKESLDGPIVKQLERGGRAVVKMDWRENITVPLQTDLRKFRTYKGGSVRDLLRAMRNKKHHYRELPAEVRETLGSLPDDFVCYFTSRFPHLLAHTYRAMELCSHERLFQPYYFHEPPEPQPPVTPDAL

SMILES	IC50	IC50 (read-out: IC50)
C[C@@H]1O[C@@H](Oc2c(-c3ccc(O)c(O)c3)oc3cc(O)cc(O)c3c2=O)[C@H](O)[C@H](O)[C@H]1O [Qi, quercitrin]	230 ± 100 nM	
NC[C@@H]1O[C@H](O[C@H]2[C@@H](O)[C@H](O[C@@H]3[C@@H](O)[C@H](N)C[C@H](N)[C@H]3O[C@H]3O[C@H](CN)[C@@H](O)[C@H](O)[C@H]3N)O[C@@H]2CO)[C@H](N)[C@@H](O)[C@@H]1O [neomycin]		330 ± 300 nM
Nc1nc2[nH]cc(CCc3ccc(C(=O)N[C@@H](CCC(=O)O)C(=O)O)cc3)c2c(=O)[nH]1 [PMT, pemetrexed]	260 ± 200 nM	
C[C@@H]1O[C@@H](OC[C@H]2O[C@@H](Oc3c(-c4ccc(O)c(O)c4)oc4cc(O)cc(O)c4c3=O)[C@H](O)[C@@H](O)[C@@H]2O)[C@H](O)[C@H](O)[C@H]1O [rutin]	530 ± 300 nM	
